Laboratory results taken from US20250333397A1 (REMIX THERAPEUTICS INC., priority 2021, published 2025).
Where a name gives a salt, the structure may show the parent alone. Read-outs that look alike come from different tables or passages of the source.

Tests used:
Format in all cases: cell-based, human
HTT mRNA = assay: RT-qPCR splicing assay, HTT canonical (CJ) and alternative (AJ) junction mRNA; details: Homo sapiens; for AC50: read-out: HTT AJ (AC50, increase in AJ mRNA)
Protocol: (§1) Compounds described herein were used to modulate RNA transcript abundance in cells. The expression of a target mRNA was measured by detecting the formation of an exon-exon junction in the canonical transcript (CJ). A compound mediated exon-inclusion event was detected by observing an increase in formation of a new junction with an alternative exon (AJ). Real-time qPCR assays were used to detect these splicing switches and interrogate the potency of various compounds towards different target genes. A high-throughput real time quantitative PCR (RT-qPCR) assay was developed to measure these two isoforms of the mRNA (CJ and AJ) for exemplary genes, such as HTT, SMN2, and MYB, together with a control housekeeping gene, GAPDH or GUSB or PPIA, used for normalization. Briefly, the A673 or K562 cell line was treated with various compounds described herein (e.g., compounds of Formula (I), (II), (III), (IV)). After treatment, the levels of the HTT, MYB, or SMN2 mRNA targets were determined from each sample of cell lysate by cDNA synthesis followed by qPCR.
(§2) The A673 cell line was cultured in DMEM with 10% FBS. Cells were diluted with full growth media and plated in a 96-well plate (15,000 cells in 100ul media per well). The plate was incubated at 37° C. with 5% CO2 for 24 hours to allow cells to adhere. An 11-point 3-fold serial dilution of the compounds was made in DMSO then diluted in media in an intermediate plate. Compounds were transferred from the intermediate plate to the cell plate with the top dose at a final concentration of 10 uM in the well. Final DMSO concentration was kept at or below 0.25%. The cell plate was returned to the incubator at 37° C. with 5% CO2 for an additional 24 hours.
(§3) The K562 cell line was cultured in IMDM with 10% FBS. For K562, cells were diluted with full growth media and plated in either a 96-well plate (50,000 cells in 50 uL media per well) or a 384-well plate (8,000-40,000 cells in 45 uL media per well). An 11-point 3-fold serial dilution of the compounds were made in DMSO then diluted in media in an intermediate plate.
(§4) Compound was transferred from the intermediate plate to the cell plate with the top dose at a final concentration of 10 uM in the well. Final DMSO concentration was kept at or below 0.25%.
(§5) Final volume was 100 uL for 96-well plate and 50 uL for 384-well plate. The cell plate was then placed in an incubator at 37° C. with 5% CO2 for 24 hours.
(§6) The cells were then gently washed with 50 uL-100 uL cold PBS before proceeding to addition of lysis buffer. 30 uL-50 μL of room temperature lysis buffer with DNAse I (and optionally RNAsin) was added to each well. Cells were shaken/mixed thoroughly at room temperature for 5-10 minutes for lysis to take place and then 3 uL-5 μL of room temperature stop solution was added and wells were shaken/mixed again. After 2-5 minutes, the cell lysate plate was transferred to ice for RT-qPCR reaction setup. The lysates could also be frozen at −80° C. for later use.
(§7) In some cases, a direct lysis buffer was used. An appropriate volume of 3× lysis buffer (10 mM Tris, 150 mM NaCl, 1.5%-2.5% Igepal and 0.1-1 U/uL RNAsin, pH 7.4) was directly added to either K562 or A673 cells in media and mixed by pipetting 3 times. The plates were then incubated at room temperature with shaking/rocking for 20-50 minutes to allow for lysis to take place. After this time, the cell lysate plate was transferred to ice to set up for the RT-qPCR reactions. The lysates could also be frozen at −80° C. for later use.
(§8) To set up 10 uL RT-qPCR reactions, cell lysates were transferred to 384-well qPCR plates containing the master mix according to the table below. The plates were sealed, gently vortexed, and spun down before the run. The volumes were adjusted accordingly in some instances where the reaction was carried in 20 μL. The table below summarizes the components of the RT-qPCR reactions: […]

Target C mRNA = assay: RT-qPCR splicing assay panel, Target C canonical junction (CJ) mRNA; details: Homo sapiens, canonical junction (CJ) mRNA, RT-qPCR panel, Table 4A; read-out: Target C, decrease in CJ mRNA levels, IC50
Protocol: as §1, §2, §3, §4, §5, §6, §7, §8

MYB mRNA = assay: RT-qPCR splicing assay, MYB canonical (CJ) and alternative (AJ) junction mRNA; details: Homo sapiens; for AC50: read-out: MYB AJ (AC50, increase in AJ mRNA)
Protocol: as §1, §2, §3, §4, §5, §6, §7, §8

SMN2 mRNA = assay: RT-qPCR splicing assay panel, SMN2 canonical junction (CJ) mRNA; details: Homo sapiens, canonical junction (CJ) mRNA, RT-qPCR panel, Table 4A; read-out: SMN2, decrease in CJ mRNA levels, IC50
Protocol: as §1, §2, §3, §4, §5, §6, §7, §8

[1] = 24 h, Table 3A, A673 or K562 cells, 24 h treatment
[2] = 24 h, Table 3A, A673 or K562 cells, 24 h treatment, read-out: HTT CJ (IC50, decrease in CJ mRNA)
[3] = canonical junction (CJ) mRNA, RT-qPCR panel, Table 4A, read-out: HTT, decrease in CJ mRNA levels, IC50
[4] = 24 h, Table 3A, A673 or K562 cells, 24 h treatment, read-out: MYB CJ (IC50, decrease in CJ mRNA)
[5] = canonical junction (CJ) mRNA, RT-qPCR panel, Table 4A, read-out: MYB, decrease in CJ mRNA levels, IC50

Compound	IC50 (HTT mRNA; [2]) [nM]	IC50 (HTT mRNA; [3]) [nM]	IC50 (Target C mRNA) [nM]	IC50 (MYB mRNA; [4]) [nM]	IC50 (MYB mRNA; [5]) [nM]	IC50 (SMN2 mRNA) [nM]	AC50 (HTT mRNA; [1]) [nM]	AC50 (MYB mRNA; [1]) [nM]
CC(C)(C)NC1CCN(c2ccc(-c3ccc(-n4cccn4)c(O)c3)nn2)C1 (stereo not shown) [Compound 109, 5-{6-[3-(tert-butylamino)pyrrolidin-1-yl]pyridazin-3-yl}-2-(pyrazol-1-yl)phenol trifluoroacetate]	1000 to 10000	1000 to 10000	> 10000	> 10000	> 10000	1000 to 10000	> 10000	> 10000
Oc1cc(-c2cn[nH]c2)ccc1-c1ccc(N2CCC(NC3(C(F)(F)F)CC3)C2)nn1 (stereo not shown) [Compound 110, 5-(1H-pyrazol-4-yl)-2-[6-(3-{[1-(trifluoromethyl)cyclopropyl]amino}pyrrolidin-1-yl)pyridazin-3-yl]phenol]	> 10000	> 10000	> 10000	> 10000	> 10000	> 10000	> 10000	> 10000
Oc1cc(-c2cn[nH]c2)ccc1-c1ccc(N2CCC(NC3(C(F)F)CC3)C2)nn1 (stereo not shown) [Compound 117, 2-[6-(3-{[1-(difluoromethyl)cyclopropyl]amino}pyrrolidin-1-yl)pyridazin-3-yl]-5-(1H-pyrazol-4-yl)phenol]	1000 to 10000	1000 to 10000	> 10000	> 10000	> 10000	100 to 1000	1000 to 10000	> 10000
NCCNC1CCN(c2ccc(-c3ccc(-c4cn[nH]c4)cc3O)nn2)C1 (stereo not shown) [Compound 208]	100 to 1000	100 to 1000	1000 to 10000	1000 to 10000	1000 to 10000	100 to 1000	100 to 1000	100 to 1000
COc1cc(-c2ccc(-c3ccc(N4CC[C@@H](NC(C)(C)C)C4)nn3)c(O)c2)cnn1 [Compound 209, 2-{6-[(3R)-3-(tert-butylamino)pyrrolidin-1-yl]pyridazin-3-yl}-5-(6-methoxypyridazin-4-yl)phenol]	< 100	< 100	< 100	< 100	< 100	< 100	< 100	< 100
COc1cc(-c2ccc(-c3ccc(N4CC[C@H](NC(C)(C)C)C4)nn3)c(O)c2)cnn1 [Compound 210, 2-{6-[(3S)-3-(tert-butylamino)pyrrolidin-1-yl]pyridazin-3-yl}-5-(6-methoxypyridazin-4-yl)phenol]	< 100	< 100	< 100	< 100	< 100	< 100	< 100	< 100
COc1cc(-c2cc(O)c(-c3ccc(N4CC[C@H](NC(C)(C)C)C4)nn3)cc2F)cnn1 [Compound 211, 2-{6-[(3S)-3-(tert-butylamino)pyrrolidin-1-yl]pyridazin-3-yl}-4-fluoro-5-(6-methoxypyridazin-4-yl)phenol]	100 to 1000	100 to 1000	100 to 1000	1000 to 10000	1000 to 10000	< 100	100 to 1000	1000 to 10000

Now from value to compound, other results behind:

IC50 (HTT mRNA; [2]) [nM]	IC50 (HTT mRNA; [3]) [nM]	IC50 (Target C mRNA) [nM]	IC50 (MYB mRNA; [4]) [nM]	IC50 (MYB mRNA; [5]) [nM]	IC50 (SMN2 mRNA) [nM]	Compound	AC50 (HTT mRNA; [1]) [nM]	AC50 (MYB mRNA; [1]) [nM]
< 100	< 100	< 100	< 100	< 100	< 100	CC1(NC2CCN(c3ccc(-c4cc(F)c(-c5cn[nH]c5)cc4O)nn3)C2)CC1 (stereo not shown) [Compound 111, 4-fluoro-2-(6-{3-[(1-methylcyclopropyl)amino]pyrrolidin-1-yl}pyridazin-3-yl)-5-(1H-pyrazol-4-yl)phenol]	< 100	< 100
< 100	< 100	100 to 1000	100 to 1000	100 to 1000	< 100	Oc1cc(-c2cn[nH]c2)ccc1-c1ccc(N2CCC(NC3(CF)CC3)C2)nn1 (stereo not shown) [Compound 112, 2-[6-(3-{[1-(fluoromethyl)cyclopropyl]amino}pyrrolidin-1-yl)pyridazin-3-yl]-5-(1H-pyrazol-4-yl)phenol]	< 100	< 100
< 100	< 100	< 100	< 100	< 100	< 100	Oc1cc(-c2cn[nH]c2)c(F)cc1-c1ccc(N2CC[C@H](NC3CCC3)C2)nn1 [Compound 113, 2-{6-[(3S)-3-(cyclobutylamino)pyrrolidin-1-yl]pyridazin-3-yl}-4-fluoro-5-(1H-pyrazol-4-yl)phenol]	< 100	< 100
< 100	< 100	100 to 1000	100 to 1000	100 to 1000	< 100	Oc1cc(-c2cn[nH]c2)ccc1-c1ccc(N2CC[C@@H](NC3CCC3)C2)nn1 [Compound 114, 2-{6-[(3R)-3-(cyclobutylamino)pyrrolidin-1-yl]pyridazin-3-yl}-5-(1H-pyrazol-4-yl)phenol]	< 100	100 to 1000
< 100	< 100	< 100	< 100	< 100	< 100	Oc1cc(-c2cn[nH]c2)c(F)cc1-c1ccc(N2CC[C@@H](NC3CCC3)C2)nn1 [Compound 115, 2-{6-[(3R)-3-(cyclobutylamino)pyrrolidin-1-yl]pyridazin-3-yl}-4-fluoro-5-(1H-pyrazol-4-yl)phenol]	< 100	< 100
< 100	< 100	< 100	100 to 1000	100 to 1000	< 100	Oc1cc(-c2cn[nH]c2)ccc1-c1ccc(N2CC[C@H](NC3CCC3)C2)nn1 [Compound 116, 2-{6-[(3S)-3-(cyclobutylamino)pyrrolidin-1-yl]pyridazin-3-yl}-5-(1H-pyrazol-4-yl)phenol]	< 100	100 to 1000
< 100	< 100	< 100	< 100	< 100	< 100	Cc1ncc(-c2cc(O)c(-c3ccc(N4CC[C@@H](NC5CCC5)C4)nn3)cc2F)s1 [Compound 146, 2-{6-[(3R)-3-(cyclobutylamino)pyrrolidin-1-yl]pyridazin-3-yl}-4-fluoro-5-(2-methyl-1,3-thiazol-5-yl)phenol]	< 100	< 100
